Source: US8722072B2, “Acaricidal and/or insecticidal active ingredient combinations” (priority 2010, dated 2014)

What was measured:
Type in all cases: in vivo
Tetranychus urticae [1] = test: Example 5: field test on roses (Freedom) against Tetranychus urticae; details: population on leaves, 1 day after treatment
Description: In plots measuring approximately 14 m^2, roses (growth stage 46) of the cultivar “Freedom” in double rows are treated in three replications against Tetranychus urticae. Application takes place using a back-mounted spray. In this example, the mixture of the active ingredients Oberon, Example (I), and abamectin, Example (VI), is tested against the commercial standards abamectin (018 EC) and Oberon (240 SC) at the stated application rates and in the stated mixing ratios. The water application rate is 1000 l/ha.
Evaluation is made 1 day after treatment, by scoring the destruction of the population on the leaves.

Tetranychus urticae [2] = test: Example 6: field test on aubergines (Suqi qie) against Tetranychus urticae, ready-prepared mixture 20:1; details: for Destruction (% Abbott) 21 days (eggs) / Destruction (% Abbott) 21 days (males) / Destruction (% Abbott) 21 days (population): 21 days after treatment; for Destruction (% Abbott) 1 day: males on leaves, 1 day after treatment; for Destruction (% Abbott) 21 days (population): total population
Description: In plots measuring approximately 8 m^2, aubergines (growth stage 15) of the cultivar “Suqi qie” are treated in three replications against Tetranychus urticae. Application takes place using a back-mounted sprayer. […] The water application rate is 450 l/ha.
Evaluation is made 1 day after treatment, by scoring the destruction of the males on the leaves.
A further evaluation is made 21 days after treatment, by scoring the destruction of the eggs, the destruction of the males, and the total population on the leaves.

[3] = system: two-spotted spider mite (Tetranychus urticae); test: Example 8: Tetranychus urticae - test on cotton; details: cotton plants, spray
Description: Tetranychus urticae—Test on Cotton
• Solvent: 7 parts by weight of dimethylformamide • Emulsifier: 2 parts by weight of alkylaryl polyglycol ether
(§1) An appropriate preparation of active ingredient is prepared by mixing 1 part by weight of active ingredient with the stated amounts of solvent and emulsifier and diluting the concentrate with emulsifier-containing water to the desired concentration.
Cotton plants (Gossypium hirsutum) infected with the two-spotted spider mite (Tetranychus urticae) are treated by being sprayed with the preparation of active ingredient in the desired concentration.
After the desired time, a determination is made of the destruction in %. 100% here means that all of the mites have been killed; 0% means that no mites have been killed. The destruction figures ascertained are calculated by the Colby formula.

Hemitarsonemus latus = test: Example 7: field test on bell peppers against Hemitarsonemus latus; details: adults on leaves, 2 days after treatment
Description: In plots measuring approximately 6 m^2, bell peppers of the cultivar “California Wonder” (growth stage 75) are treated in three replications against Hemitarsonemus latus. Application takes place using a sprayer at 2.5 bar pressure. […] The water application rate is 300 l/ha.
Evaluation is made 2 days after treatment, by scoring the destruction of the adults on the leaves.

[4] = system: larvae of the seven-spotted ladybird (Coccinella septempunctata); test: Example 13: Coccinella septempunctata larvae - test on plums (beneficial species); details: plum leaves, spray
Description: Coccinella septempunctata/Larvae—Test on Plums
An appropriate solution for application is prepared by diluting the respective formulation to the desired concentration.
Plum leaves colonized by larvae of the seven-spotted ladybird (Coccinella septempunctata) are treated by being sprayed with the application solution at the desired concentration.
After the desired time, the destruction is determined in %. 100% here means that all of the ladybird larvae have been killed; 0% means that no ladybird larvae have been killed. The destruction figures ascertained are calculated by the Colby formula.

Tetranychus urticae [5] = test: Example 1: field test on aubergines against Tetranychus urticae; details: for Destruction (% Abbott) 1 day: 1 day after treatment; for Destruction (% Abbott) 55 days: 55 days after treatment; for Destruction (% Abbott) 45 days: 45 days after treatment
Description: In plots measuring approximately 14 m^2, aubergines (around 11 weeks after planting out) of the cultivar “Heilongchangqie” are treated in three replications against Tetranychus urticae. Application takes place using a sprayer. […] The water application rate is 450 l/ha.
Evaluation is made 1 day and 55 days after treatment, by scoring the destruction of the eggs on the leaves.
A further evaluation is made 45 and 55 days after treatment, by scoring the destruction of the nymphs on the leaves.

Tetranychus urticae [6] = test: Example 4: field test on cotton plants against Tetranychus urticae; details: population on leaves, 13 days after treatment
Description: In plots measuring approximately 15 m^2, cotton plants of the cultivar “BRS Aroeira” with a height of approximately 80 cm are treated in three replications against Tetranychus urticae. Application takes place using a spray at 2.5 bar. […] The water application rate is 200 l/ha.
Evaluation is made 13 days after treatment, by scoring the destruction of the population on the leaves.

[7] = system: whitefly (Bemisia tabaci); test: Example 11: Bemisia tabaci - test on cabbage; details: cabbage plants, spray
Description: Bemisia tabaci—Test on Cabbage
(§2) • Solvent: 7 parts by weight of dimethylformamide • Emulsifer: 2 parts by weight of alkylaryl polyglycol ether
as §1
Cabbage plants (Brassica oleracea) infested with whitefly (Bemisia tabaci) are treated by being sprayed with the preparation of active ingredient at the desired concentration.
(§3) After the desired time, the destruction is determined in %. 100% here means that all of the whitefly have been killed; 0% means that no whitefly have been killed. The destruction figures ascertained are calculated by the Colby formula.

[8] = system: whitefly (Bemisia tabaci); test: Example 10: Bemisia tabaci - test on cotton; details: cotton plants, spray
Description: Bemisia tabaci—Test on Cotton
as §2, §1
Cotton plants (Gossypium hirsutum) infested with whitefly (Bemisia tabaci) are treated by being sprayed with the preparation of active ingredient at the desired concentration.
as §3

Tetranychus urticae [9] = test: Example 3: field test on tomatoes against Tetranychus urticae; details: adults on leaves, 3 days after treatment
Description: In plots measuring approximately 6 m^2, tomatoes of the cultivar “Leader” are treated in three replications against Tetranychus urticae. Application takes place using a back-mounted spray (4.5 bar). […] The water application rate is 1000 l/ha.
Evaluation is made 3 days after treatment, by scoring the destruction of the adults on the leaves.

Tetranychus urticae [10] = test: Example 2: field test on roses (Blizard) against Tetranychus urticae; details: adults on leaves, 3 days after treatment
Description: In plots measuring approximately 6 m^2, roses of the cultivar “Blizard” with an age of approximately 3 years are treated in three replications against Tetranychus urticae. Application takes place using a back-mounted spray (3.5 bar). […] The water application rate is 1320 l/ha. Evaluation is made 3 days after treatment, by counting the adults on the leaves/square inch. Subsequently, the activity is calculated as a percentage by the method of Henderson and Tilton.

[11] = system: Frankliniella occidentalis; test: Example 9: field test on bell peppers against Frankliniella occidentalis; details: for Destruction (% Abbott) 7 days: adults in the flowers, 7 days after the second treatment; for Destruction (% Abbott) 14 days: mixed population in the flowers, 14 days after the second treatment
Description: In plots measuring approximately 10 m^2, bell peppers of the cultivar “Italiano verde” are treated in three replications against Frankliniella occidentalis. Application is made using a back-mounted spray (10 bar). […] The water application rate is 750 l/ha. Two applications are carried out, at an interval of 7 days.
Evaluation is made 7 days after the second treatment, by scoring the destruction of the adults in the flowers.
Evaluation is made 14 days after the second treatment, by scoring the destruction of the mixed population in the flowers.

[12] = nymphs on leaves, 120 g a.i./ha

Compound: Cc1cc(C)c(C2=C(OC(=O)CC(C)(C)C)C3(CCCC3)OC2=O)c(C)c1 [Oberon (I), Spiromesifen]
- Activity (% Abbott) 1 day (Tetranychus urticae [1]; 120 g a.i./ha): 32.4 % Abbott
- Destruction (% Abbott) 21 days (eggs) (Tetranychus urticae [2]; 120 g a.i./ha): 0 % Abbott
- Destruction (% Abbott) 1 day (Tetranychus urticae [2]; 120 g a.i./ha): 0 % Abbott
- Destruction (% Abbott) 21 days (males) (Tetranychus urticae [2]; 120 g a.i./ha): 5 % Abbott
- Destruction (% Abbott) 21 days (population) (Tetranychus urticae [2]; 120 g a.i./ha): 1.9 % Abbott
- Destruction in % after 3d ([3]; 100 g ai/ha): 30%
- Destruction (% Abbott) 2 days (Hemitarsonemus latus; 120 g a.i./ha): 50 % Abbott
- Destruction in % after 3d ([4]; 60 g ai/ha): 3%
- Destruction in % after 3d ([4]; 120 g ai/ha): 10%
- Destruction (% Abbott) 1 day (Tetranychus urticae [5]; eggs on leaves, 120 g a.i./ha): 26.7 % Abbott
- Destruction (% Abbott) 55 days (Tetranychus urticae [5]; eggs on leaves, 120 g a.i./ha): 0 % Abbott
- Destruction (% Abbott) 45 days (Tetranychus urticae [5]; [12]): 14.8 % Abbott
- Destruction (% Abbott) 55 days (Tetranychus urticae [5]; [12]): 24.1 % Abbott
- Destruction (% Abbott) 13 days (Tetranychus urticae [6]; 120 g a.i./ha): 58.5 % Abbott
- Destruction in % after 9d ([7]; 150 g ai/ha): 55%
- Destruction in % after 7d ([8]; 120 g ai/ha): 70%
- Destruction (% Abbott) 3 days (Tetranychus urticae [9]; 120 g a.i./ha): 25.0 % Abbott
- Activity (% H. + T.) 3 days (Tetranychus urticae [10]; 105 g a.i./ha): 32.2 % H. + T.
- Activity (% H. + T.) 3 days (Tetranychus urticae [10]; 210 g a.i./ha): 40.7 % H. + T.
- Destruction (% Abbott) 7 days ([11]; 105 g a.i./ha): 3.3 % Abbott
- Destruction (% Abbott) 14 days ([11]; 105 g a.i./ha): 0 % Abbott
- Destruction (% Abbott) 14 days ([11]; 210 g a.i./ha): 0 % Abbott

Compound: abamectin [Abamectin (VI)]
- Activity (% Abbott) 1 day (Tetranychus urticae [1]; 6 g a.i./ha): 27 % Abbott
- Destruction (% Abbott) 21 days (eggs) (Tetranychus urticae [2]; 10 g a.i./ha): 0 % Abbott
- Destruction (% Abbott) 1 day (Tetranychus urticae [2]; 10 g a.i./ha): 33.3 % Abbott
- Destruction (% Abbott) 21 days (males) (Tetranychus urticae [2]; 10 g a.i./ha): 45 % Abbott
- Destruction (% Abbott) 21 days (population) (Tetranychus urticae [2]; 10 g a.i./ha): 47.6 % Abbott
- Destruction in % after 3d ([3]; 4 g ai/ha): 10%
- Destruction (% Abbott) 2 days (Hemitarsonemus latus; 10 g a.i./ha): 0 % Abbott
- Destruction in % after 3d ([4]; 3 g ai/ha): 63%
- Destruction in % after 3d ([4]; 6 g ai/ha): 100%
- Destruction (% Abbott) 1 day (Tetranychus urticae [5]; eggs on leaves, 10 g a.i./ha): 19.8 % Abbott
- Destruction (% Abbott) 55 days (Tetranychus urticae [5]; eggs on leaves, 10 g a.i./ha): 0 % Abbott
- Destruction (% Abbott) 45 days (Tetranychus urticae [5]; nymphs on leaves, 10 g a.i./ha): 0 % Abbott
- Destruction (% Abbott) 55 days (Tetranychus urticae [5]; nymphs on leaves, 10 g a.i./ha): 0 % Abbott
- Destruction (% Abbott) 13 days (Tetranychus urticae [6]; 7.2 g a.i./ha): 16.5 % Abbott
- Destruction in % after 9d ([7]; 6 g ai/ha): 0%
- Destruction in % after 9d ([7]; 15 g ai/ha): 0%
- Destruction in % after 7d ([8]; 6 g ai/ha): 0%
- Destruction (% Abbott) 3 days (Tetranychus urticae [9]; 10 g a.i./ha): 45.8 % Abbott
- Activity (% H. + T.) 3 days (Tetranychus urticae [10]; 10.5 g a.i./ha): 0 % H. + T.
- Activity (% H. + T.) 3 days (Tetranychus urticae [10]; 21 g a.i./ha): 0 % H. + T.
- Destruction (% Abbott) 7 days ([11]; 10.5 g a.i./ha): 0 % Abbott
- Destruction (% Abbott) 14 days ([11]; 10.5 g a.i./ha): 0 % Abbott
- Destruction (% Abbott) 14 days ([11]; 21 g a.i./ha): 2.0 % Abbott
